Bounds are passed on as bounds.

For the first experiment, the target named is IDH1 R132H (Homo sapiens, UniProt O75874, R132H). Kind of experiment: Assay for IDH1 R132H inhibitors (NADPH/aKG, resazurin detection). Type of experiment: biochemical. Conditions: Table 3; enzyme assay, 50 minutes at room temperature; read-out: IC50 (IDH1 R132H Inhibition). As for the experimental part: Assays were conducted in a volume of 76 μl assay buffer (150 mM NaCl, 10 mM MgCl2, 20 mM Tris pH 7.5, 0.03% bovine serum albumin) as follows in a standard 384-well plate: To 25 ul of substrate mix (8 uM NADPH, 2 mM aKG), 1 μl of test compound was added in DMSO. The plate was centrifuged briefly, and then 25 μl of enzyme mix was added (0.2 μg/ml IDH1 R132H) followed by a brief centrifugation and shake at 100 RPM. The reaction was incubated for 50 minutes at room temperature, then 25 μl of detection mix (30 μM resazurin, […]) was added and the mixture further incubated for 5 minutes at room temperature. The conversion of resazurin to resorufin was detected by fluorescent spectroscopy at Ex544 Em590 c/o 590.
IDH1 R132H, sequence (O75874 whole entry R132H): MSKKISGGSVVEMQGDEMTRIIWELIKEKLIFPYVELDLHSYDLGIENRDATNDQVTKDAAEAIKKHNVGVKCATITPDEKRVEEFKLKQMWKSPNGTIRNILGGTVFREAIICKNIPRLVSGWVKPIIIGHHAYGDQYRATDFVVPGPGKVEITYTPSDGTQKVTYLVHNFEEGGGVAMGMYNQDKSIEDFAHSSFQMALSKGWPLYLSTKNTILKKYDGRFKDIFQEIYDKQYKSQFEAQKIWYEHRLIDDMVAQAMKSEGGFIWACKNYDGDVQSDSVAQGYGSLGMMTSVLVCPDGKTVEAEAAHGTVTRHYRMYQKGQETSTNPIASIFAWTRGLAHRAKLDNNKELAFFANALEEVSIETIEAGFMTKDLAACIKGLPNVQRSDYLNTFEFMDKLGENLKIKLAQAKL
Turning to `CC(C)c1nc(N2CCN(C(=O)Cc3cccs3)[C@H](C(C)C)C2)c(C#N)cc1-c1ccc(C(F)(F)F)cc1` [Compound 196, (R)-6-isopropyl-2-(3-isopropyl-4-(2-(thiophen-2-yl)acetyl)piperazin-1-yl)-5-(4-(trifluoromethyl)phenyl)-nicotinonitrile], the 50% inhibitory concentration (IC50) is 1 to 5 µM.

For `COc1ccccc1-c1cc(C(C)C)nc(N2CCN(C(=O)Cc3ccccc3)CC2)c1C#N` [Compound 146, 6-isopropyl-4-(2-methoxyphenyl)-2-(4-(2-phenylacetyl)piperazin-1-yl)nicotinonitrile], the IC50 lay in the range of 5 to 15 µM.

As to `CC(C)c1cc(-c2ccccc2)c(C#N)c(N2CCN(C(=O)Cc3ccccc3)C(C)C2)n1` (stereo not drawn) [Compound 121, 6-isopropyl-2-(3-methyl-4-(2-phenylacetyl)piperazin-1-yl)-4-phenylnicotinonitrile], the IC50 was 5 to 15 µM.

As to `CC(C)c1cc(-c2ccccc2)c(C#N)c(N2CCN(C(=O)c3ccccc3)CC2)n1` [Compound 100, 2-(4-benzoylpiperazin-1-yl)-6-isopropyl-4-phenylnicotinonitrile], the IC50 lay in the range of 5 to 15 µM.

With `COc1ccccc1-c1cc(C#N)c(N2CCN(C(=O)c3ccoc3C)[C@H](C)C2)nc1C(C)C` [Compound 178, (R)-6-isopropyl-5-(2-methoxyphenyl)-2-(3-methyl-4-(2-methylfuran-3-carbonyl)piperazin-1-yl)nicotino-nitrile], the IC50 lay within 1 to 5 µM.

For `COCCC(=O)N1CCN(c2nc(C(C)C)c(-c3ccc4c(c3)OCO4)cc2C#N)C[C@H]1C` [Compound 224, (R)-5-(benzo[d][1,3]dioxol-5-yl)-6-isopropyl-2-(4-(3-methoxypropanoyl)-3-methylpiperazin-1-yl)nicotinonitrile], the IC50 is no more than 1 µM.

In the case of `CCOc1ccccc1-c1cc(C(C)C)nc(N2CCN(C(=O)c3ccoc3)[C@H](C)C2)c1C#N` [Compound 163, (R)-4-(2-ethoxyphenyl)-2-(4-(furan-3-carbonyl)-3-methylpiperazin-1-yl)-6-isopropylnicotinonitrile], the IC50 is 1 to 5 µM.

On to `CC[C@@H]1CN(c2nc(C(C)C)c(-c3ccccc3)cc2C#N)CCN1C(=O)c1ccoc1C` [Compound 173, (R)-2-(3-ethyl-4-(2-methylfuran-3-carbonyl)piperazin-1-yl)-6-isopropyl-5-phenylnicotinonitrile], for which the concentration for half-maximal inhibition (IC50) is 1 to 5 µM.

As for `COCCC(=O)N1CCN(c2nc(C3CC3)c(-c3cccc(OC)c3)cc2C#N)C[C@H]1C` [Compound 236, (R)-6-cyclopropyl-5-(3-methoxyphenyl)-2-(4-(3-methoxypropanoyl)-3-methylpiperazin-1-yl)nicotinonitrile], the IC50 was no more than 1 µM.

Consider `CC(C)c1nc(N2C[C@@H](C)N(C(=O)Cc3ccccc3)[C@@H](C)C2)c(C#N)cc1-c1ccccc1` [Compound 140, 2-((3S,5R)-3,5-dimethyl-4-(2-phenylacetyl)piperazin-1-yl)-6-isopropyl-5-phenylnicotinonitrile], for which the half-inhibitory concentration (IC50) fell in the range of 1 to 5 µM.

Regarding `COCCC(=O)N1CCN(c2nc(C(C)C)c(-c3ccccc3)cc2C#N)C[C@H]1C` [Compound 222, (R)-6-isopropyl-2-(4-(3-methoxypropanoyl)-3-methylpiperazin-1-yl)-5-phenylnicotinonitrile], the IC50 is no more than 1 µM.

For the molecule `COCCC(=O)N1CCN(c2nc(C3CC3)c(-c3ccc(OC(F)(F)F)cc3)c(C)c2C#N)C[C@H]1C` [Compound 255, (R)-6-cyclopropyl-2-(4-(3-methoxypropanoyl)-3-methylpiperazin-1-yl)-4-methyl-5-(4-(trifluoromethoxy)-phenyl)nicotinonitrile], the half-maximal inhibitory concentration (IC50) is no more than 1 µM.

In the case of `CC(C)c1cc(-c2ccccc2)c(C#N)c(N2CCN(C(=O)Cc3ccccc3)[C@H](C)C2)n1` [Compound 131, (R)-6-isopropyl-2-(3-methyl-4-(2-phenylacetyl)piperazin-1-yl)-4-phenylnicotinonitrile], the half-inhibitory concentration (IC50) is 1 to 5 µM.

As to `CCc1ccc(-c2cc(C#N)c(N3CCN(C(=O)CCOC)[C@H](C)C3)nc2C(C)C)cc1` [Compound 216, 5-(4-ethylphenyl)-6-isopropyl-2-(4-(3-methoxypropanoyl)-3-methylpiperazin-1-yl)nicotinonitrile], the IC50 fell in the range of 1 to 5 µM.

Take `COCCC(=O)N1CCN(c2nc(C(C)C)c(-c3ccc(F)cc3)cc2C(=O)OC)C[C@H]1C` [Compound 244, (R)-methyl 5-(4-fluorophenyl)-6-isopropyl-2-(4-(3-methoxypropanoyl)-3-methylpiperazin-1-yl)nicotinate]: the half-inhibitory concentration (IC50) was 1 to 5 µM.

As to `CC(C)c1ccc(-c2cc(C#N)c(N3CCN(C(=O)c4ccoc4)[C@H](C)C3)nc2C(C)C)cc1` [Compound 206, (R)-2-(4-(furan-3-carbonyl)-3-methylpiperazin-1-yl)-6-isopropyl-5-(4-isopropylphenyl)nicotinonitrile], the IC50 was in the range of 1 to 5 µM.

As to `CC(C)c1nc(N2CCN(C(=O)Cc3cccs3)[C@H](C)C2)c(C#N)cc1-c1ccccc1` [Compound 165, (R)-6-isopropyl-2-(3-methyl-4-(2-(thiophen-2-yl)acetyl)piperazin-1-yl)-5-phenylnicotinonitrile], the IC50 fell in the range of 1 to 5 µM.

Still in this experiment, the particulars now being: enzyme assay of Example 12; read-out: IDH1R132H IC50.
Turning to `COCCC(=O)N1CCN(c2nc(C3CC3)c(-c3cnnc(OS(=O)(=O)C(F)(F)F)c3)cc2C#N)C[C@H]1C` [Compound 614, (R)-5-(5-cyano-2-cyclopropyl-6-(4-(3-methoxypropanoyl)-3-methylpiperazin-1-yl)pyridin-3-yl)pyridazin-3-yl trifluoromethanesulfonate], the IC50 was less than 0.5 µM.

On to `C=Cc1cc(-c2c(C3CC3)nc(N3CCN(C(=O)CCC4CCC4)[C@H](C4CC4)C3)c(C#N)c2C)ccn1` [Compound 826, (R)-6-(4-(3-cyclobutylpropanoyl)-3-cyclopropylpiperazin-1-yl)-2-cyclopropyl-4-methyl-2′-vinyl-3,4′-bipyridine-5-carbonitrile], for which the IC50 is less than 0.5 µM.

On to `COCCC(=O)N1CCN(c2nc(C3CC3)c(-c3cccc4c3CN(C)C4=O)cc2C#N)C[C@H]1C` [Compound 460, (R)-6-Cyclopropyl-2-(4-(3-methoxypropanoyl)-3-methylpiperazin-1-yl)-5-(2-methyl-1-oxoisoindolin-4-yl)nicotinonitrile], for which the 50% inhibitory concentration (IC50) was less than 0.5 µM.

With `N#Cc1cc(-c2cnn(CCO)c2)c(C2CC2)nc1N1CCN(C(=O)C2CC2)[C@H](C2CC2)C1` [Compound 490, (R)-2-(4-(cyclopropanecarbonyl)-3-cyclopropylpiperazin-1-yl)-6-cyclopropyl-5-(1-(2-hydroxyethyl)-1H-pyrazol-4-yl)nicotinonitrile], the IC50 fell in the range of 0.5 to 1 µM.

`N#Cc1cc(-c2cncc(-c3nnn[nH]3)c2)c(C2CC2)nc1N1CCN(C(=O)C2CC2)[C@H](C2CC2)C1` [Compound 554, (R)-6-(4-(cyclopropanecarbonyl)-3-cyclopropylpiperazin-1-yl)-2-cyclopropyl-5′-(1H-tetrazol-5-yl)-[3,3′-bipyridine]-5-carbonitrile]: the IC50 is less than 0.5 µM.

Regarding `C=Cc1ccnc(Nc2cc(C#N)c(N3CCN(C(=O)CCCCC)[C@H](C4CC4)C3)nc2C2CC2)c1` [Compound 830, (R)-6-cyclopropyl-2-(3-cyclopropyl-4-hexanoylpiperazin-1-yl)-5-(4-vinylpyridin-2-ylamino)nicotinonitrile], the IC50 is less than 0.5 µM.

With `N#Cc1cc(-c2cccc3nc(Cl)ccc23)c(C2CC2)nc1N1CCN(C(=O)C2CC2)[C@H](C2CC2)C1` [Compound 549, (R)-5-(2-chloroquinolin-5-yl)-2-(4-(cyclopropanecarbonyl)-3-cyclopropylpiperazin-1-yl)-6-cyclopropylnicotinonitrile], the IC50 was less than 0.5 µM.

Consider `N#Cc1cc(Nc2ccnc(CO)c2)c(C2CC2)nc1N1CCN(C(=O)C[C@H]2CCO2)[C@H](C2CC2)C1` [Compound 824, 6-cyclopropyl-2-((R)-3-cyclopropyl-4-(2-((R)-oxetan-2-yl)acetyl)piperazin-1-yl)-5-((2-(hydroxymethyl)pyridin-4-yl)amino)nicotinonitrile], for which the half-inhibitory concentration (IC50) is less than 0.5 µM.

As to `COCCC(=O)N1CCN(c2nc(C3CC3)c(-c3cccc(CO)c3)cc2C#N)C[C@H]1C` [Compound 306, (R)-6-cyclopropyl-5-(3-(hydroxymethyl)phenyl)-2-(4-(3-methoxypropanoyl)-3-methylpiperazin-1-yl)nicotinonitrile], the half-maximal inhibitory concentration (IC50) lay in the range of 0.5 to 1 µM.

On to `COCCC(=O)N1CCN(c2nc(C3CC3)c(-c3ccc4cc[nH]c4c3)cc2C#N)C[C@H]1C` [Compound 289, (R)-6-cyclopropyl-5-(1H-indol-6-yl)-2-(4-(3-methoxypropanoyl)-3-methylpiperazin-1-yl)nicotinonitrile], for which the IC50 is less than 0.5 µM.

For `COCCC(=O)N1CCN(c2nc(C3CC3)c(Nc3ccnc(C(=O)OC)c3)cc2C#N)C[C@H]1C` [Compound 683, (R)-methyl 4-((5-cyano-2-cyclopropyl-6-(4-(3-methoxypropanoyl)-3-methylpiperazin-1-yl)pyridin-3-yl)amino)picolinate], the IC50 was less than 0.5 µM.

As to `COCCC(=O)N1CCN(c2nc(C3CC3)c(-c3ccc(F)c4ccccc34)cc2C#N)C[C@H]1C` [Compound 290, (R)-6-cyclopropyl-5-(4-fluoronaphthalen-1-yl)-2-(4-(3-methoxypropanoyl)-3-methylpiperazin-1-yl)nicotinonitrile], the IC50 was less than 0.5 µM.

For `C=Cc1ccnc(Nc2cc(C#N)c(N3CCN(C(=O)/C=C/CCO)[C@H](C(C)C)C3)nc2C2CC2)c1` [Compound 791, (R,E)-6-cyclopropyl-2-(4-(5-hydroxypent-2-enoyl)-3-isopropylpiperazin-1-yl)-5-((4-vinylpyridin-2-yl)amino)nicotinonitrile], the 50% inhibitory concentration (IC50) is less than 0.5 µM.

The record behind these values is US9856279B2 (AGIOS PHARMACEUTICALS, INC, priority 2011, dated 2018).
